What was measured:
Assay type in all cases: biochemical
[1] = biological target: T1, PDGF-R (beta subunit kinase domain) (Homo sapiens, UniProt P09619); experiment: Kinase selectivity assay PDGF-R
T1 construct: nucleotides 1874–3507 of the human PDGF-R beta subunit kinase domain; polyhistidine (N)
Procedure: Assays to test compound inhibition of other kinases were preformed using methods that measure the amount of phosphorylation of a biotinylated peptide substrate. Biotinylated peptide substrates were selected from the literature as appropriate for the enzyme being evaluated. […] Assay conditions vary slightly for each protein kinase, for example, insulin receptor kinase requires 10 mM MnCl2 for activity and Calmodulin-dependent protein kinase requires calmodulin and 2 mM CaCl2. The reaction mixture was dispensed into the wells of a streptavidin coated Flashplate and 1 μL test compound in 100% DMSO was added to a 100 μL reaction volume resulting in a final concentration of 1% DMSO in the reaction. Enzyme was diluted in 50 mM Tris-HCl pH=8.0, 0.1% BSA and added to each well. The reaction was incubated for one hour at 30° C. in the presence of a test compound. After one hour the reaction mix was aspirated from the plate and the plate was washed with PBS containing 100 mM EDTA. The plate was read on a scintillation counter to determine ^33P-γ-ATP incorporated into the immobilized peptide substrate. Test compounds were assayed in duplicate at 8 concentrations (100 μM, 10 μM, 1 μM, 100 nM, 10 nM, 1 nM, 100 pM, 10 pM). A maximum and minimum signal for the assay was determined on each plate. […] Known inhibitor compounds appropriate for the kinase being assayed were also included on each plate. […]

[2] = biological target: T2, PKC γ (Homo sapiens, UniProt P05129); experiment: Kinase selectivity assay PKC γ
T2 construct: purchased BIOMOL SE-143; host or cells: insect cells
Procedure: (§1) Assays to test compound inhibition of other kinases were preformed using methods that measure the amount of phosphorylation of a biotinylated peptide substrate. Biotinylated peptide substrates were selected from the literature as appropriate for the enzyme being evaluated. The general procedure used to assay for kinase activity is as follows: a kinase reaction mix was prepared in 50 mM Tris-HCl pH=8, 10 mM MgCl2, 0.1 mM Na3VO4, 1 mM DTT, 10 μM ATP, 0.25–1 μM biotinylated peptide substrate, 0.2–0.8 μCuries per well ^33P-γ-ATP (2000–3000 Ci/mmol). Assay conditions vary slightly for each protein kinase, for example, insulin receptor kinase requires 10 mM MnCl2 for activity and Calmodulin-dependent protein kinase requires calmodulin and 2 mM CaCl2. The reaction mixture was dispensed into the wells of a streptavidin coated Flashplate and 1 μL test compound in 100% DMSO was added to a 100 μL reaction volume resulting in a final concentration of 1% DMSO in the reaction. Enzyme was diluted in 50 mM Tris-HCl pH=8.0, 0.1% BSA and added to each well. The reaction was incubated for one hour at 30° C. in the presence of a test compound. […] The plate was read on a scintillation counter to determine ^33P-γ-ATP incorporated into the immobilized peptide substrate. […] A maximum and minimum signal for the assay was determined on each plate. […]

[3] = biological target: CDK4 (Homo sapiens, UniProt P11802); experiment: Kinase selectivity assay CDK4
Procedure: as §1

T1 sequence (P09619 554-1106 limits assumed): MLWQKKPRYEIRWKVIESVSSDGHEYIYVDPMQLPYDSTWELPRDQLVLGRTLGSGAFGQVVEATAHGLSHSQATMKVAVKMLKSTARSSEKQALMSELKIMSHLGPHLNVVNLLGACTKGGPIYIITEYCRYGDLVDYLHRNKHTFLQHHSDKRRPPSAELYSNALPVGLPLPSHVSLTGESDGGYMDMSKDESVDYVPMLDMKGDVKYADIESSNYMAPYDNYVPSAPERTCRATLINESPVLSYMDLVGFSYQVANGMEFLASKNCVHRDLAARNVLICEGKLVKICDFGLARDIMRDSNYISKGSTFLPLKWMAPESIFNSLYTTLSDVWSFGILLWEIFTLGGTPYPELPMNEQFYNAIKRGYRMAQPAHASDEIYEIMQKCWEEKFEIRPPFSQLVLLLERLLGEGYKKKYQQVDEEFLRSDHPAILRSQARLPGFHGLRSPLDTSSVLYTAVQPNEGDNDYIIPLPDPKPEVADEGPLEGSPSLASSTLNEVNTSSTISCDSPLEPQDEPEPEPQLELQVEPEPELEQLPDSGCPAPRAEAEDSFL
Chain of CDK4 (P11802 whole entry, species assumed): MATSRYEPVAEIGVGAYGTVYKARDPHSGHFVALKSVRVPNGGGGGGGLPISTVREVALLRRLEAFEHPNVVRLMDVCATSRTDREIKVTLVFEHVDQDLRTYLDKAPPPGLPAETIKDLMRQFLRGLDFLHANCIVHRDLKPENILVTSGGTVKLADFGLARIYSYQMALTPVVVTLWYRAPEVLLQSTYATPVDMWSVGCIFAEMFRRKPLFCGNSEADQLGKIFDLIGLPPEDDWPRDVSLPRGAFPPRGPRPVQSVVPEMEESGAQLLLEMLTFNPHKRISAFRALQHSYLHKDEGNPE
Chain of CDK4 (P24385 whole entry partner, species assumed): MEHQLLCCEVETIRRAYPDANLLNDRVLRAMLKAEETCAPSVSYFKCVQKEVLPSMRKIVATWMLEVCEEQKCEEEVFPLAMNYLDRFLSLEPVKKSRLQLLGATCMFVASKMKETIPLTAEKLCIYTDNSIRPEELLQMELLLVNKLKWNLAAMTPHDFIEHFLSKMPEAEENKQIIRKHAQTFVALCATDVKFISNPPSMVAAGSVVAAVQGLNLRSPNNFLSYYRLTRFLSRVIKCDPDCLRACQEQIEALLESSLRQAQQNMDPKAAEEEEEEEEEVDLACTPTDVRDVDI

## OCCCNc1cncc(-c2ncnc(Nc3cccc(Cl)c3)n2)c1 [Compound 1, 3-((5-(4-((3-chlorophenyl)amino)-1,3,5-triazin-2-yl)-3-pyridinyl)amino)-1-propanol]
[1]
  IC50: 1180 nM
[2]
  IC50: > 100000 nM
[3]
  IC50: 1350 nM

From patent publication US7205298B2, “Substituted triazine kinase inhibitors” (Janssen Pharmaceutica N.V., priority 2002, dated 2007)
